Experimental findings from patent US20250250227A1, “AMINO LIPID COMPOUND, PREPARATION METHOD THEREFOR, COMPOSITION THEREOF AND USE THEREOF” (SHENZHEN SHENXIN BIOTECHNOLOGY CO., LTD., priority 2022, published 2025) are described below.

Molecules are shown by their SMILES.

The nature of data set [1]: Preparation and characterisation of mRNA-encapsulating lipid nanoparticle (encapsulation efficiency, particle size). Type of data set: physicochemical. The following applies: LNP encapsulating Fluc mRNA; Lipid:DSPC:CHO-HP:M-DMG-2000 48:10:40.5:1.5. The procedure, abridged: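 Fluc mRNA in sodium acetate buffer mixed with ethanolic amino lipid:DSPC:CHO-HP:M-DMG-2000 (48:10:40.5:1.5 molar) by microfluidics, mRNA:lipid mass ratio 1:10, then dialysed 2 h against Tris-8% sucrose and 0.22 μm filtered. Final mRNA 0.2 g/L; particle size and encapsulation efficiency measured.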

For data set [2], the system named is Female BALB/c mice. The experiment in a line: Performance evaluation of in vivo delivery of Fluc mRNA lipid nanoparticle (IVIS, body and organs). The following applies: Fluc mRNA LNP. The gist of the method: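 Female BALB/c mice, 6-8 weeks, received 75 μL Fluc mRNA-LNP by tail-vein injection, 3 mice per formulation. At 6 h, 200 μL D-luciferin was injected, mice were anesthetized with isoflurane, and IVIS bioluminescence was imaged in body and organs.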

The subject of data set [3] is Female BALB/c mice. The data set can be described thus: Performance evaluation of delivery to lymph nodes of Fluc mRNA lipid nanoparticle (IVIS). Type of data set: in vivo. The conditions noted are these: Fluc mRNA LNP; for Expression intensity (lymph nodes): 75 μL IV, 6 hours after injection, IVIS. The method, then: (§1) Animal preparation: Female BALB/c mice of 6-8 weeks old were selected and raised in an SPF grade breeding room. Animal testing was conducted in strict accordance with the guidelines of national health institutions and animal ethics requirements.
In vivo Delivery: prior to injection of the test LNP formulations, the LNP formulations were gently and repeatedly inverted to thoroughly mix the formulation samples. A corresponding amount of the formulation samples were aspirated with a 1 ml insulin syringe, and the LNP formulations were injected by tail vein injection (IV), with 3 mice per formulation. Each mouse was injected with 75 μL the luciferase mRNA (Fluc mRNA)-encapsulating lipid nanoparticle formulation prepared in Experimental Example 1.
6 hours after injection of LNP formulations, mice were injected with 200 μL D-Luciferin luciferase developing substrate (Catalog No. 122799; Manufacturer: Perkin Elmer). After the substrate was injected, the mice were anesthetized with isoflurane inhalation, and the injection time of luciferase developing substrate was recorded.
The intensity of fluorescence expression induced by the lipid nanoparticle encapsulating luciferase mRNA (Fluc mRNA) with a representative amino lipid compound is shown in Table 6, with SM-102 as a control.

Data set [4] has as its system Female BALB/c mice. The experiment in a line: IFN-γ Elispot cellular immunity test, spleen lymphocytes of mice immunized with IN002.5.1 mRNA LNP. Type of data set: in vivo. The following applies: 50 μL IM, spleen on 7th day after immunization, FIG. 2-4. The method, then: An IN002.5.1 mRNA-encapsulating lipid nanoparticle formulation was prepared according to the method as described in Experimental Example 1, with replacing the luciferase mRNA (Fluc mRNA) with IN002.5.1 mRNA, with a concentration of IN002.5.1 mRNA of 0.2 g/L, a mass ratio of IN002.5.1 mRNA to Lipid of 1:10, a particle size of 80-130 nm, and an encapsulation efficiency of 90% or higher.
The sequence of IN002.5.1 mRNA is one obtained by replacing all uracil (u) in SEQ ID NO. 1 with N1-methylpseudouridine. Of note is that the t (thymine) in the RNA sequence, SEQ ID NO. 1, in the Sequence Listing is actually u (uracil), according to the WIPO Standard ST. 26 for nucleotide or amino acid sequence listing.
as §1
Immunization of mice: Prior to injection of the test LNP formulations, the LNP formulations were gently and repeatedly inverted to thoroughly mix the formulation samples. A corresponding amount of the formulation samples were aspirated with a 1 ml insulin syringe, and the LNP formulations were injected by intramuscular injection (IM) […], with 8 mice per formulation. Each mouse was injected with 50 μL of the IN002.5.1 mRNA encapsulating lipid nanoparticle formulation.
Spleen acquisition: On the 7th day after immunization, 3 to 4 mice from each LNP immunization group were selected and euthanized, and their spleens were acquired in a super clean bench.
Isolation of lymphocytes: The spleens of mice were taken out in a super clean bench. 7 mL of mouse lymphocyte separation solution was added to a 6-well cell culture plate. Mouse spleen cells were ground with a syringe piston, and the suspension of the spleen cells was filtered through a cell screen and immediately transferred to a 15 mL centrifuge tube. […] RPMI 1640 medium was slowly added with keeping the liquid interface distinct. After centrifugation at 800 g with a horizontal rotor at room temperature for 30 minutes, a clear stratification can be visible. The lymphocyte layer was aspirated, then added with 10 mL RPMI 1640 medium, and inverted for washing. The cells were collected by centrifugation at 250 g for 10 min at room temperature, and the red blood cells were lysed. After completing lysis of red blood cells, the supernatant was poured, and the cells were resuspended in culture medium and counted.
Addition of stimulant and culture of lymphocyte: RPMI-1640 medium containing 10% fetal bovine serum was used to activate the pre-coated plate. After standing at room temperature for at least 30 min, the medium was removed, and a cell suspension at adjusted concentration was added ([…]). The medium used to resuspend the cells was used as a background negative control. 10 μL positive stimulant working solution (PMA+Ionomycin (dissolved in DPBS) was added to a positive control well; […] medium used to resuspend the cells was added to a negative control well; 10 µL/well of a peptide library diluted with RPMI 1640 was added to experimental wells. After all samples and the stimulant were added, the plate was covered, incubated in an incubator with 5% CO2 at 37° C. for 16-24 h.
Elispot detection after culture: The cells and the culture medium in the wells were dumped, and the wells were lysed with 200 μL/well of ice-cold deionized water at 4° C. for 10 min. The liquid in the wells were shaken out, and the wells were washed five times with PBS buffer. The wells were incubated with 100 μL/well of 1 μg/ml detection antibody for 2 h at room temperature; and after washing the plate 5 times with PBS, the wells were incubated with 100 μL/well of 1000-fold diluted enzyme labeled avidin (Streptavidin-HRP) for 1 h at room temperature. […]

Consider `CCCCCCC(CCCCCC)OC(=O)CCCCCCCCC(CCCCCCCCC(=O)OC(CCCCCC)CCCCCC)OC(=O)N(CCCN(C)C)CC(=O)OCC` [Compound 268], for which, in data set [1], the Encapsulation efficiency amounted to 92.22%. The “Liver (fluorescence expression intensity)” value in the data set with Female BALB/c mice [2] (75 μL IV, 6 hours after injection, IVIS, liver) was 2.11E+07. The “Spleen (fluorescence expression intensity)” value in the data set on Female BALB/c mice [2] (75 μL IV, 6 hours after injection, IVIS, spleen) is reported as 8.01E+06. Further, the “Total flux (fluorescence expression intensity)” value in the data set with Female BALB/c mice [2] (75 μL tail vein injection (IV), 6 hours after injection, IVIS) is 1.23E+08. Moreover, the “(Spleen/Total Flux) * 100%” value in the data set on Female BALB/c mice [2] (IV, 6 hours after injection) was determined as 6.51%. For the same compound, the “Multiple of spleen delivery/total delivery to amino lipid compound 118” value in the data set with Female BALB/c mice [2] (IV, relative to amino lipid compound 118) is on record as 19.15. Moreover, the “Expression intensity (lymph nodes)” value with Female BALB/c mice [3] turned out to be 1.78E+06. For the same compound, the “Delivery effect on lymph nodes compared to SM102” value with Female BALB/c mice [3] (IV, statement on Table 6) was “better delivery effect on lymph nodes”. In the data set on Female BALB/c mice [4], the “Cellular immunity effect (IFN-γ Elispot) compared to ALC0315” value is “better cellular immunity effect”.
With `CCCCCCCCCCCOC(=O)CCCCCN(CCO)CCCCCCCC(=O)OC(CCCCCCCC)CCCCCCCC` [SM-102, reference compound], the “Expression intensity (lymph nodes)” value with Female BALB/c mice [3] stood at 4.94E+05.
